Test results reported in EP4635500A1, “THERAPEUTIC AGENT FOR BACTERIAL INFECTION” (Sumitomo Pharma Co., Ltd., priority 2022, dated 2024).
Values after ≈ are worked out from the molar mass of the structure shown. Where two headings read alike, the source gives them in different places.

What was measured:
Assay in all cases: MIC and MBC, broth microdilution (Example 4, Table 3)
Assay type in all cases: cell-based
Klebsiella pneumoniae = test system: Klebsiella pneumoniae
Escherichia coli = test system: Escherichia coli
Serratia marcescens = Serratia marcescens CDC-124 (SME-3)
[1] = test system: Enterobacter cloacae complex; conditions: Enterobacter cloacae complex CDC-164 (NMC-A)
Morganella morganii = Morganella morganii CDC-57 (NDM-1)
Enterobacter aerogenes = test system: Enterobacter aerogenes
Acinetobacter baumannii = test system: Acinetobacter baumannii
[2] = Escherichia coli CDC-150 (NDM-5)
[3] = Acinetobacter baumannii CDC-303 (OXA-23, OXA-66)

CC(C)(O/N=C(\C(=O)N[C@@H]1C(=O)N2C(C(=O)[O-])=C(C[n+]3ccccc3)CS[C@H]12)c1csc(N)n1)C(=O)O [CAZ, ceftazidime]
MIC (Klebsiella pneumoniae; ATCCBAA2470, Klebsiella pneumoniae ATCC BAA-2470 (NDM-1), read-out: MIC): > 128 µg/mL
MIC (Klebsiella pneumoniae; Klebsiella pneumoniae): > 128 µg/mL
MBC/MIC ratio (Klebsiella pneumoniae; Klebsiella pneumoniae ATCC BAA-2524 (OXA-48)): 1
MIC (Klebsiella pneumoniae; Klebsiella pneumoniae CDC-505 (NDM-1)): >128 µg/mL
MIC (Klebsiella pneumoniae; Klebsiella pneumoniae KUB3607 (IMP-1)): >128 µg/mL
MIC (Klebsiella pneumoniae; Klebsiella pneumoniae NCTC13440 (VIM-1), read-out: MIC): > 128 µg/mL
MIC (Klebsiella pneumoniae; Klebsiella pneumoniae, ATCCBAA2344): > 128 µg/mL
MBC (Klebsiella pneumoniae; Klebsiella pneumoniae, ATCCBAA2344, Klebsiella pneumoniae ATCC BAA-2344 (KPC-2)): > 128 µg/mL
MBC (Klebsiella pneumoniae; Klebsiella pneumoniae, ATCCBAA2470, Klebsiella pneumoniae ATCC BAA-2470 (NDM-1)): > 128 µg/mL
MBC (Klebsiella pneumoniae; Klebsiella pneumoniae, ATCCBAA2524, Klebsiella pneumoniae ATCC BAA-2524 (OXA-48)): 0.5 µg/mL (≈ 0.915 µM)
MIC (Klebsiella pneumoniae; Klebsiella pneumoniae, ATCCBAA2524, Klebsiella pneumoniae ATCC BAA-2524 (OXA-48), read-out: MIC): 0.5 µg/mL (≈ 0.915 µM)
MBC (Klebsiella pneumoniae; Klebsiella pneumoniae, Klebsiella pneumoniae CDC-112 (KPC-3)): > 128 µg/mL
MBC (Klebsiella pneumoniae; Klebsiella pneumoniae, Klebsiella pneumoniae CDC-505 (NDM-1)): > 128 µg/mL
MBC (Klebsiella pneumoniae; Klebsiella pneumoniae, Klebsiella pneumoniae KUB3607 (IMP-1)): > 128 µg/mL
MBC (Klebsiella pneumoniae; Klebsiella pneumoniae, NCTC13440, Klebsiella pneumoniae NCTC13440 (VIM-1)): > 128 µg/mL
MBC/MIC ratio (Escherichia coli): 1
MBC (Escherichia coli; ATCCBAA2340, Escherichia coli ATCC BAA-2340 (KPC-3), read-out: MBC): 128 µg/mL (≈ 234 µM)
MBC (Escherichia coli; ATCCBAA2469, Escherichia coli ATCC BAA-2469 (NDM-1), read-out: MBC): > 128 µg/mL
MIC (Escherichia coli; ATCCBAA2469, Escherichia coli ATCC BAA-2469 (NDM-1), read-out: MIC): > 128 µg/mL
MBC (Escherichia coli; [2]): >128 µg/mL
MIC (Escherichia coli; [2]): >128 µg/mL
MBC (Escherichia coli; Escherichia coli CDC-162 (NDM-7), read-out: MBC): > 128 µg/mL
MIC (Escherichia coli; Escherichia coli CDC-162 (NDM-7), read-out: MIC): > 128 µg/mL
MBC (Escherichia coli; Escherichia coli NCTC13476 (IMP-1), read-out: MBC): > 128 µg/mL
MIC (Escherichia coli; Escherichia coli NCTC13476 (IMP-1), read-out: MIC): > 128 µg/mL
MIC (Escherichia coli; Escherichia coli, ATCCBAA2340): 128 µg/mL (≈ 234 µM)
MBC (Serratia marcescens): 64 µg/mL (≈ 117 µM)
MBC/MIC ratio (Serratia marcescens): 256
MIC (Serratia marcescens): 0.25 µg/mL (≈ 0.457 µM)
MBC [1]: 32 µg/mL (≈ 58.5 µM)
MBC/MIC ratio [1]: 1
MIC [1]: 32 µg/mL (≈ 58.5 µM)
MBC (Morganella morganii): > 128 µg/mL
MIC (Morganella morganii): > 128 µg/mL
MBC/MIC ratio (Enterobacter aerogenes; Enterobacter aerogenes CDC-161 (IMP-4)): 1
MBC (Enterobacter aerogenes; Klebsiella aerogenes): 128 µg/mL (≈ 234 µM)
MIC (Enterobacter aerogenes; Klebsiella aerogenes): 128 µg/mL (≈ 234 µM)
MBC/MIC ratio (Acinetobacter baumannii; [3]): 2
MIC (Acinetobacter baumannii; [3]): 64 µg/mL (≈ 117 µM)
MBC/MIC ratio (Acinetobacter baumannii; Acinetobacter baumannii CDC-304 (OXA-66, OXA-72)): 1
MIC (Acinetobacter baumannii; Acinetobacter baumannii CDC-304 (OXA-66, OXA-72), read-out: MIC): 64 µg/mL (≈ 117 µM)
MBC (Acinetobacter baumannii; Acinetobacter baumannii, Acinetobacter baumannii CDC-33 (NDM-1, OXA-94)): > 128 µg/mL
MIC (Acinetobacter baumannii; Acinetobacter baumannii, Acinetobacter baumannii CDC-33 (NDM-1, OXA-94), read-out: MIC): > 128 µg/mL
MBC (Acinetobacter baumannii; Acinetobacter baumannii, Acinetobacter baumannii CDC-101 (OXA-24, OXA-65)): > 128 µg/mL
MIC (Acinetobacter baumannii; Acinetobacter baumannii, Acinetobacter baumannii CDC-101 (OXA-24, OXA-65), read-out: MIC): > 128 µg/mL
MBC (Acinetobacter baumannii; Acinetobacter baumannii, Acinetobacter baumannii CDC-303 (OXA-23, OXA-66)): 128 µg/mL (≈ 234 µM)
MBC (Acinetobacter baumannii; Acinetobacter baumannii, Acinetobacter baumannii CDC-304 (OXA-66, OXA-72)): 64 µg/mL (≈ 117 µM)
